The values that follow come from PubChem BioAssay (NCI).

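Each compound was tested at five concentrations against cells in 96-well plates for 48 hours. At the TGI there is no net growth.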

Test in all cases: NCI anticancer screen, dose series, 48 h
Assay [1] concerns 786-0 renal.
In assay [2] the test system is COLO 205 colon.
Assay [3] deals with DU-145 prostate.
For assay [4], the system named is HCT-116 colon.
Assay [5] relates to LOX IMVI melanoma.
Assay [6] deals with MDA-MB-231 breast.
In assay [7] the test system is OVCAR-4 ovarian.
Assay [8] has as its system PC-3 prostate.
For assay [9], the system named is SF-539 CNS.
Assay [10] deals with SK-MEL-2 melanoma.

On to `CCOC(=O)c1ccc(NC2Oc3cc4c(cc3C(c3cc(OC)c(OC)c(OC)c3)C2C)OCO4)cc1` (stereo not given), for which the TGI is 46.6 µM in assay [1]; 0.645 µM in assay [2]; more than 100 µM in [3]; more than 51.7 µM in [4]; 32.9 µM in [5]; 2.24 µM in assay [6]. In addition, the TGI in assay [7] is more than 64.7 µM; in assay [8], more than 100 µM; in [9], 0.878 µM; in assay [10] it was more than 63.4 µM.
Take `Cc1ccc(N=Nc2c(O)c3ccccc3[nH]c2=O)c(S(=O)(=O)N(C)C)c1`: the TGI in [1], in assay [2], in assay [3], in assay [4], in assay [5] and in assay [6] was more than 100 µM throughout. For the same compound, the TGI in [7], in [8], in assay [9] and in assay [10] was more than 100 µM in each case.
For `COc1ccc2c(c1O)-c1c(OC)c(OC)cc3c1[C@H](C2)[N+](C)(C)CC3`, the TGI in assay [1], in assay [2], in assay [3], in assay [4], in assay [5] and in [6] was more than 100 µM throughout. Moreover, the TGI in assay [7], in assay [8], in assay [9] and in assay [10] was more than 100 µM throughout.
`COC(=O)Cc1c([C@@H]2Nc3ccccc3[C@H]2CC(=O)OC)[nH]c2ccccc12`: the TGI in [1] was more than 100 µM; in assay [2], 34.8 µM; in assay [3] it was more than 100 µM; in assay [4], more than 100 µM; in assay [5], more than 100 µM; in assay [6], 88.9 µM. Besides, the TGI is more than 100 µM in assay [7], more than 100 µM in [8], 67.5 µM in assay [9] and 34.8 µM in [10].
As for `O=C1CC(NC(=O)C(F)(F)F)c2c(Br)sc(N3CCC(c4ccccc4)CC3)c21` (stereo not given), the TGI was more than 100 µM in assay [1]; more than 100 µM in assay [2]; more than 100 µM in assay [3]; more than 100 µM in [4]; more than 100 µM in assay [5]; 39.8 µM in [6]. For the same compound, the TGI is 92.6 µM in [7], more than 100 µM in assay [8], more than 100 µM in assay [9] and more than 100 µM in assay [10].
With `O=S(=O)(O)c1cc(Cl)c(O)c2ncc(Cl)cc12`, the TGI in assay [1], in assay [2], in [3], in assay [4], in [5] and in [6] was more than 100 µM each time. Moreover, the TGI in assay [7], in assay [8], in [9] and in [10] was more than 100 µM each time.
Turning to `COc1cc2c(cc1OC)C(=O)N(c1ccc(O)cc1)C2`, the TGI in assay [1], in assay [2], in [3], in assay [4], in assay [5] and in [6] was more than 100 µM each time. In addition, the TGI in assay [7], in assay [8], in assay [9] and in [10] was more than 100 µM each time.
For the compound `Cc1c(C)c(C)c(-n2c(=O)n(C)c(=O)n2C(C)(C)C)c(C)c1C`, the TGI in assay [1], in assay [2], in [3], in [4], in assay [5] and in [6] was more than 100 µM each time. Also, the TGI in assay [7], in assay [8], in [9] and in assay [10] was more than 100 µM each time.
With `CCOC(=O)C1(Cc2ccc(C)cc2)Cc2ccc(C)cc2C1=O` (stereo not given), the TGI in assay [1] was more than 100 µM; in assay [2], more than 78.7 µM; in assay [3], more than 100 µM; in assay [4], more than 60.2 µM; in [5] it was more than 65 µM; in assay [6], more than 100 µM. Further, the TGI in assay [7] was more than 100 µM; in assay [8] it was more than 100 µM; in [9] it was 58.5 µM; in assay [10], 32.9 µM.
In the case of `CN(NC(=O)c1ccco1)C1=NCCCCN1`, the TGI in assay [1], in assay [2], in assay [3], in [4], in [5] and in assay [6] was more than 100 µM throughout. In addition, the TGI in assay [7], in [8], in assay [9] and in [10] was more than 100 µM in each case.
